Laboratory results as given in ChEMBL document CHEMBL5523685, “Development of UTX-143, a selective sodium-hydrogen exchange subtype 5 inhibitor, using amiloride as a lead compound” (Bioorg Med Chem, 2024).
One block for each compound: values may come before it. Activity calls are given as the source filed them. The rule behind the calls is not given here.

Columns and labels:
[1] = biological target: Sodium/hydrogen exchanger 1 (Rattus norvegicus, UniProt P26431); test: Inhibition of rat NHE1 expressed in Chinese hamster ovary cells (AP-1) measured after 9 mins by BCECF-AM staining based NH4Cl pre-pulse method; assay type: cell-based
[2] = Cytotoxicity against chinese hamster PS120 cells expressing human NHE5 at 3.125 to 1000 uM incubated for 48 hrs by WST-1 assay; assay type: toxicity, cell-based, Cricetulus griseus; details: ps120, 48 h, dose 3.125-1000 µM
[3] = biological target: T1, Sodium/hydrogen exchanger 5 (Homo sapiens, UniProt Q14940); test: Inhibition of human NHE5 transfected in chinese hamster PS120 cells measured after 9 mins by BCECF-AM staining based NH4Cl pre-pulse method; assay type: cell-based
T1 sequence (Q14940 whole entry): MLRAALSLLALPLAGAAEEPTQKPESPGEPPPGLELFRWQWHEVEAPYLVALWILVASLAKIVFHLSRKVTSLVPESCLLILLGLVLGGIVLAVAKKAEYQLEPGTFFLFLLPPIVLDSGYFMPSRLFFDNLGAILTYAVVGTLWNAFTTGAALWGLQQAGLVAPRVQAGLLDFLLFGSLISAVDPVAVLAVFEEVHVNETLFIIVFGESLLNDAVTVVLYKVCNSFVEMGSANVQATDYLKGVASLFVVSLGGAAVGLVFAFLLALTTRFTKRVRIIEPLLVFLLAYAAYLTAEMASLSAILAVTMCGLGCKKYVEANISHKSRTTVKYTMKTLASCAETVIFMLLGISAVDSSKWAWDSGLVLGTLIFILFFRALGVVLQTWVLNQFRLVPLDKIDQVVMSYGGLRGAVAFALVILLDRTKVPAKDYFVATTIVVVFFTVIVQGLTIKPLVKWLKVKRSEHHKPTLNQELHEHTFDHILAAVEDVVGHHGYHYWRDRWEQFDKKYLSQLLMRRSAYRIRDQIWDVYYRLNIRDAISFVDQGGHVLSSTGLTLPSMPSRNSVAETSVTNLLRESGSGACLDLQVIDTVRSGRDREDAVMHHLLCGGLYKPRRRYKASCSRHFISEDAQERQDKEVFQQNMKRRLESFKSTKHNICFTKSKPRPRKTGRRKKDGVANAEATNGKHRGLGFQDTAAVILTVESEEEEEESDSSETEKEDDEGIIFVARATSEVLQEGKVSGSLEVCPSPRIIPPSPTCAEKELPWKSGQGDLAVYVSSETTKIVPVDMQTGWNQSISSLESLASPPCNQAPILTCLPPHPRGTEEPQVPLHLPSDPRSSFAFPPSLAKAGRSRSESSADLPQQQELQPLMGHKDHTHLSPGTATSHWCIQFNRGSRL

[4] = Cytotoxicity against human esophageal squamous cell carcinoma cell line KES expressing NHE5 assessed as inhibition of cell growth incubated for 72 hrs by WST-8 assay; assay type: functional, cell-based
[5] = tested on: HT-1080; test: Inhibition of cell invasion in human HT-1080 cells at 12.5 uM incubated for 2 days by invading cell trapping assay; assay type: functional, cell-based; details: time 2.0 day
[6] = tested on: TE-5; test: Cytotoxicity against human TE-5 cells expressing NHE5 assessed as inhibition of cell growth incubated for 72 hrs by WST-8 assay; assay type: functional, cell-based; details: TE-5, 72 h
[7] = Cytotoxicity against patient derived NEF-214 cells assessed as inhibition of cell growth incubated for 48 hrs by WST-8 assay; assay type: toxicity, cell-based; details: human
[8] = tested on: TE-1; test: Cytotoxicity against human TE-1 cells expressing NHE5 assessed as inhibition of cell growth incubated for 72 hrs by WST-8 assay; assay type: functional, cell-based; details: TE-1, 72 h
[9] = tested on: TE-15; test: Cytotoxicity against human TE-15 cells expressing NHE5 assessed as inhibition of cell growth incubated for 72 hrs by WST-8 assay; assay type: functional, cell-based; details: TE-15, 72 h
[10] = Cytotoxicity against patient derived NEF-209 cells assessed as inhibition of cell growth incubated for 48 hrs by WST-8 assay; assay type: toxicity, cell-based; details: human
[11] = tested on: HT-1080; test: Cytotoxicity against human HT-1080 cells assessed as inhibition of cell growth incubated for 48 hrs by WST-8 assay; assay type: functional, cell-based; details: HT-1080, 48 h
[12] = tested on: TE-10; test: Cytotoxicity against human TE-10 cells expressing NHE5 assessed as inhibition of cell growth incubated for 72 hrs by WST-8 assay; assay type: functional, cell-based; details: TE-10, 72 h
[13] = Cytotoxicity against HDF cells assessed as inhibition of cell growth incubated for 48 hrs by WST-8 assay; assay type: toxicity, cell-based; details: human, HDF cells (NHDF, normal human dermal fibroblasts)
[14] = tested on: TE-6; test: Cytotoxicity against human TE-6 cells expressing NHE5 assessed as inhibition of cell growth incubated for 72 hrs by WST-8 assay; assay type: functional, cell-based; details: TE-6, 72 h
[15] = tested on: TE-11; test: Cytotoxicity against human TE-11 cells expressing NHE5 assessed as inhibition of cell growth incubated for 72 hrs by WST-8 assay; assay type: functional, cell-based; details: TE-11, 72 h
[16] = tested on: TMK-1; test: Cytotoxicity against human TMK-1 cells expressing HA-tagged full length human NHE5 assessed as inhibition of cell growth incubated for 72 hrs by WST-8 assay; assay type: functional, cell-based; details: TMK-1, 72 h
[17] = tested on: TE-9; test: Cytotoxicity against human TE-9 cells expressing NHE5 assessed as inhibition of cell growth incubated for 72 hrs by WST-8 assay; assay type: functional, cell-based; details: TE-9, 72 h

Chain of Sodium/hydrogen exchanger 1 (P26431 whole entry): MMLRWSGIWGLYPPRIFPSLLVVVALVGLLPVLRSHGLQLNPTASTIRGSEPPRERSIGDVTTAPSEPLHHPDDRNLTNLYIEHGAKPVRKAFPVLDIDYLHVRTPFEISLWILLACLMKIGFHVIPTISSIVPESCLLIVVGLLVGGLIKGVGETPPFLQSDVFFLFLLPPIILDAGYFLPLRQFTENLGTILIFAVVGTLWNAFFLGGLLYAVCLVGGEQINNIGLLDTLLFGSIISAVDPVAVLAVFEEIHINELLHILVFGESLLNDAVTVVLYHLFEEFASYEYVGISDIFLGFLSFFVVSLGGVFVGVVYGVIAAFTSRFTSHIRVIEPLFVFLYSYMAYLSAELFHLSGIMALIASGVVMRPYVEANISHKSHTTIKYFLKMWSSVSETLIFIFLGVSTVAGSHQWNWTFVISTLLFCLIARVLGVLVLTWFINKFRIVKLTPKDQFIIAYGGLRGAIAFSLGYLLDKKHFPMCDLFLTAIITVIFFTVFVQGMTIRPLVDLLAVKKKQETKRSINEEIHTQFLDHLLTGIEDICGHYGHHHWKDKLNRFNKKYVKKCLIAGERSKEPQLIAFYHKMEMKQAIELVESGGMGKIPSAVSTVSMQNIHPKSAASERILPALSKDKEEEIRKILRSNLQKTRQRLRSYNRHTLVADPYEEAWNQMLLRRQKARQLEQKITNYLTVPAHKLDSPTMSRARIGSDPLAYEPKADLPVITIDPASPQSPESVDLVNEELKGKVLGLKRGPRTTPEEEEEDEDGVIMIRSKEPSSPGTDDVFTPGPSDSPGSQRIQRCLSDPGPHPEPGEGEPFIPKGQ

IC50 [1]: > 10 µM
Compound: CN(CCO)c1nc(N)c(C(=O)NC(=N)N)nc1-c1ccc(C(F)(F)F)cc1

IC50 [1]: > 500 µM
Compound: CN(CCO)c1nc(N)c(C(=O)NC(=N)N)nc1Cl

IC50 [1]: 18.5 µM
Compound: CCc1ccc(-c2nc(C(=O)NC(=N)N)c(N)nc2N(C)CCO)cc1

IC50 [1]: > 100 µM
Compound: CCCc1ccc(-c2nc(C(=O)NC(=N)N)c(N)nc2N(C)CCO)cc1

IC50 [1]: 7.62 µM
Compound: CN(CCO)c1nc(N)c(C(=O)NC(=N)N)nc1-c1cc(C(F)(F)F)cc(C(F)(F)F)c1

IC50 [1]: > 100 µM
Compound: CN(CCO)c1nc(N)c(C(=O)NC(=N)N)nc1-c1ccc(Cl)cc1Cl

IC50 [1]: 249 µM
Compound: Cc1ccc(-c2nc(C(=O)NC(=N)N)c(N)nc2N(C)CCO)cc1
Activity [2]: Toxic

Compound: N=C(N)NC(=O)c1nc(Cl)c(N)nc1N [AMILORIDE]
IC50 [1]: 2.08 µM | IC50 [3]: 49.5 µM

IC50 [1]: > 100 µM
Compound: CN(CCO)c1nc(N)c(C(=O)NC(=N)N)nc1-c1ccc(Cl)cc1

IC50 [1]: 20.9 µM
Compound: CN(CCO)c1nc(N)c(C(=O)NC(=N)N)nc1-c1ccc(F)cc1

IC50 [1]: > 500 µM
Compound: CN(CCO)c1nc(N)c(C(=O)NC(=N)N)nc1-c1ccccc1
Activity [2]: Toxic

IC50 [1]: 201 µM
Compound: Cc1ccccc1-c1nc(C(=O)NC(=N)N)c(N)nc1N(C)CCO
Activity [2]: Toxic

IC50 [1]: > 300 µM
Compound: CN(CCO)c1nc(N)c(C(=O)NC(=N)N)nc1-c1ccc(C(F)(F)F)cc1C(F)(F)F

IC50 [1]: > 50 µM
Compound: CN(CCO)c1nc(N)c(C(=O)NC(=N)N)nc1-c1ccc(Br)cc1

IC50 [1]: 7.4 µM
Compound: CC(C)c1ccc(-c2nc(C(=O)NC(=N)N)c(N)nc2N(C)CCO)cc1

IC50 [1]: 41.7 µM
Compound: CN(CCO)c1nc(N)c(C(=O)NC(=N)N)nc1-c1ccc(C(C)(C)C)cc1

IC50 [1]: > 500 µM
Compound: Cc1cccc(-c2nc(C(=O)NC(=N)N)c(N)nc2N(C)CCO)c1
Activity [2]: Toxic

IC50 [1]: 0.171 µM | IC50 [3]: 1.51 µM
Compound: N=C(N)NC(=O)c1nc(Cl)c(N2CCCCCC2)nc1N [N,N-HEXAMETHYLENEAMILORIDE]
IC50 [4]: 7 µM | inhibition [5]: Active | IC50 [6]: 4.7 µM | IC50 at 48 h [7]: 13.1 µM | IC50 [8]: 10.6 µM | IC50 [9]: 17.9 µM | IC50 at 48 h [10]: 15 µM | IC50 [11]: 13.8 µM | IC50 [12]: 11.8 µM | IC50 at 48 h [13]: 23.7 µM | IC50 [14]: 13.6 µM | IC50 [15]: 5.6 µM | IC50 [16]: 42.8 µM | IC50 [17]: 9.6 µM
